Assay results from US7410797B2, “Meningeal-derived stem cells” (priority 2002, dated 2008).

Columns and labels:
Cells from the meninges = test: Neural differentiation of meningeal-derived stem cells in induction media; assay type: cell-based; conditions: for effect on neural differentiation compared with dexamethasone: used as substitutes for dexamethasone
Protocol: Cells from the meninges that are allowed to become 70% confluent (FIG. 2A) are susceptible to differentiating into nerve under two conditions: antioxidant treatment and steroid hormone treatment. […] This can also be achieved with other antioxidants (i.e., reducing agents), such as butylated hydroxyanisole (BHA) (approximately 200 μM), dithiothreitol (DTT; i.e., Cleland's reagent), as well as dithioerythritol, tributylphosphine, iodoacetamide, tris-phosphine HCl, deoxythymidine-triphosphate trilithium salt, diethylthiatricarbocyanine perchlorate, diethylthiatricarbocyanine iodide and DECROLINE D (available from BASF Corporation; Mount Olive, N.J.; generic name zinc formaldehyde sulfoxylate). These conditions are similar to those used to differentiate bone marrow-derived stem cells and adipose-derived stem cells (D. Woodbury et al., “Adult rat and human bone marrow stromal cells differentiate into neurons,” J. Neuroscience Res., 61(4):364-70 (2000)). The cells that form have a bipolar morphology and express nerve-specific markers.
The cells differentiate into what are morphologically distinct subsets of neurons when exposed to small concentrations (e.g, 100 nM) of dexamethasone; a steroid hormone.
These may therefore be used as substitutes for dexamethasone. Other steroids that may be used in accordance with this embodiment of the present invention include pregnenolone, aldosterone, testosterone, estradiol and cortisol.

Dural cells = test: Osseous differentiation of dural cells plated on substrate (alkaline phosphatase staining); assay type: cell-based; conditions: substrate 100 μg/cm^2
Protocol: Dural cells were forced to adopt a bony phenotype by two separate methods. The first included plating these cells on a MATRIGEL or laminin substrate (100 μg/cm^2).

Row | Molecule | effect on neural differentiation compared with dexamethasone (Cells from the meninges) | further results
1 | vitamin A | elicited similar effects to dexamethasone | –
2 | OCCS [β-mercaptoethanol] | – | differentiation into neural-like cells (Cells from the meninges; pre-induction media with 1 mM β-mercaptoethanol for 24 hours, then induction media DMEM, 5 mM β-mercaptoethanol, cells 70% confluent): differentiate into neural-like cells within six hours
3 | CC1=C(/C=C/C(C)=C/C=C/C(C)=C/C=O)C(C)(C)CCC1 [retinaldehyde] | elicited similar effects to dexamethasone | –
4 | C=C1/C(=C\C=C2/CCC[C@]3(C)[C@@H]([C@H](C)CCCC(C)(C)O)CC[C@@H]23)C[C@@H](O)C[C@@H]1O [1,25-dihydroxy vitamin D3] | elicited similar effects to dexamethasone | –
5 | CC1=C(/C=C/C(C)=C/C=C/C(C)=C/CO)C(C)(C)CCC1 [retinol] | elicited similar effects to dexamethasone | –
6 | laminin | – | expression of alkaline phosphatase (differentiated bone marker) (Dural cells): expressed alkaline phosphatase (a differentiated bone marker) within seven days
